Legend:
human 5-HT1A receptor [1] = target: T1, human 5-HT1A receptor (Homo sapiens (Human), UniProt P08908); assay: Test 1: binding activity for human 5-HT1A receptor ([3H]8-OH-DPAT, CHO cell membrane fraction)
How it was run: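 Membranes incubated with [3H]8-OH-DPAT and compound for 60 min at room temperature, then filtered on polyethylenimine-coated glass-fibre plates and counted by liquid scintillation. IC50 from Hill analysis; Ki = IC50/(1+S/Kd), Kd from saturation binding on the same membranes.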

human D2 receptor = human D2 receptor (Homo sapiens (Human), UniProt P14416); assay: Test 1: binding activity for human D2 receptor ([3H]Spiperone, CHO cell membrane fraction); conditions: for Ki: human D2 receptor, [3H]Spiperone; for D2 Ki/5-HT1A Ki / D2 Ki/5-HT2A Ki: selectivity ratio
Sequence of human D2 receptor (P14416 whole entry): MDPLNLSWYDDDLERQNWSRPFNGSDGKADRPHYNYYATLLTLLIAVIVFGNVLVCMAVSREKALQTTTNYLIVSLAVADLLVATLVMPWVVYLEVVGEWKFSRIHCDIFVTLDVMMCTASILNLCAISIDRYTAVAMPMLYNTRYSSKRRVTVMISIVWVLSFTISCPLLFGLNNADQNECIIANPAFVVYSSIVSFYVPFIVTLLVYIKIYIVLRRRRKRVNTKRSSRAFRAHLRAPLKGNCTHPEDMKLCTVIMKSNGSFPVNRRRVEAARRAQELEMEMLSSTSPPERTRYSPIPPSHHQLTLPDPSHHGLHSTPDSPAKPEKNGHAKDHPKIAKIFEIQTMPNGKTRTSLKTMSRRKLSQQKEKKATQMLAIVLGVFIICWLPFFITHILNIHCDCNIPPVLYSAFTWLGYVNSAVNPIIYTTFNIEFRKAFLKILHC
How it was run: (§1)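 Compound displacement of [3H]ketanserin at 5-HT2A or [3H]spiperone at D2 was measured in CHO membrane fractions after 60 min at room temperature, with filtration and scintillation counting. IC50 was converted to Ki by Cheng–Prusoff using ligand concentration and Kd from saturation binding.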

human 5-HT1A receptor [2] = target: T1, human 5-HT1A receptor; assay: Test 2: agonist activity for human 5-HT1A receptor ([35S]GTPγS binding); type: biochemical; conditions: for EC50: [35S]GTPγS binding, concentration at which half the activity of Emax was obtained; for Emax at 10 µM: agonist activity in the presence of 10 μM of compound, relative to 100 μmol/L 5-HT
How it was run: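 [35S]GTPγS binding read-out: after 60 min at room temperature with test compound in GDP buffer, human 5-HT1A receptor CHO membranes were vacuum-filtered and retained radioactivity scintillation-counted. Agonist activity calculated by formula.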

[3] = Test 4: metabolic stability test in human hepatic microsome; type: in vitro ADME; conditions: 0.1 mg/mL microsome, 0.1 μmol/L compound, 37° C., 30 minutes
How it was run: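 LC-MS quantified remaining parent after 30 min, 37° C, in pH 7.4 25 mmol/L phosphate containing 0.1 mg/mL human hepatic microsomes, 3.2 mmol/L NADPH and 0.1 μmol/L test compound. Value given as −LN(residual ratio)/30/0.1, mL/min/mg protein.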

[4] = Test 5: predictive test of human half-life (monkey distribution volume, serum unbound fraction, microsomal stability); type: in vivo; conditions: predicted from cynomolgus monkey distribution volume (i.v.), serum unbound fraction and human hepatic microsome stability
Procedure: Test 5: Predictive Test of Human Half-Life
The present compound was intravenously administered to cynomolgus monkey as an aqueous solution in 0.01 mol/L hydrochloric acid. Blood was collected on 5 minutes, 15 minutes, 30 minutes, 1 hour, 2 hours, 4 hours, 6 hours, and 24 hours after the administration. Plasma was obtained from the collected blood, the drug concentration in the plasma was measured by LC-MS, and the distribution volume of monkey was calculated from the transition of the concentration.
The unbound fraction rate of the present compound in human or monkey serum was measured by equilibrium dialysis method.
The half-life in human was calculated according to the following formula using the results of the distribution volume of monkey, the unbound fraction rate in human or monkey serum, and the metabolic stability in human hepatic microsome obtained in Test 3.

hERG channel = hERG channel (Homo sapiens (Human), UniProt Q12809); assay: Test 6-1: inhibitory activity for hERG channel (auto patch clamp, Qpatch); type: cell-based; conditions: for IC50: whole cell auto patch clamp, hERG-CHO cells, read-out: hERG inhibition IC50; for hERG inhibition IC50 (nmol/L)/5-HT1A Ki (nmol/L): ratio of hERG IC50 to 5-HT1A Ki; for hERG inhibition IC50 (nmol/L)/5-HT2A Ki (nmol/L): ratio of hERG IC50 to 5-HT2A Ki
Sequence of hERG channel (Q12809 whole entry): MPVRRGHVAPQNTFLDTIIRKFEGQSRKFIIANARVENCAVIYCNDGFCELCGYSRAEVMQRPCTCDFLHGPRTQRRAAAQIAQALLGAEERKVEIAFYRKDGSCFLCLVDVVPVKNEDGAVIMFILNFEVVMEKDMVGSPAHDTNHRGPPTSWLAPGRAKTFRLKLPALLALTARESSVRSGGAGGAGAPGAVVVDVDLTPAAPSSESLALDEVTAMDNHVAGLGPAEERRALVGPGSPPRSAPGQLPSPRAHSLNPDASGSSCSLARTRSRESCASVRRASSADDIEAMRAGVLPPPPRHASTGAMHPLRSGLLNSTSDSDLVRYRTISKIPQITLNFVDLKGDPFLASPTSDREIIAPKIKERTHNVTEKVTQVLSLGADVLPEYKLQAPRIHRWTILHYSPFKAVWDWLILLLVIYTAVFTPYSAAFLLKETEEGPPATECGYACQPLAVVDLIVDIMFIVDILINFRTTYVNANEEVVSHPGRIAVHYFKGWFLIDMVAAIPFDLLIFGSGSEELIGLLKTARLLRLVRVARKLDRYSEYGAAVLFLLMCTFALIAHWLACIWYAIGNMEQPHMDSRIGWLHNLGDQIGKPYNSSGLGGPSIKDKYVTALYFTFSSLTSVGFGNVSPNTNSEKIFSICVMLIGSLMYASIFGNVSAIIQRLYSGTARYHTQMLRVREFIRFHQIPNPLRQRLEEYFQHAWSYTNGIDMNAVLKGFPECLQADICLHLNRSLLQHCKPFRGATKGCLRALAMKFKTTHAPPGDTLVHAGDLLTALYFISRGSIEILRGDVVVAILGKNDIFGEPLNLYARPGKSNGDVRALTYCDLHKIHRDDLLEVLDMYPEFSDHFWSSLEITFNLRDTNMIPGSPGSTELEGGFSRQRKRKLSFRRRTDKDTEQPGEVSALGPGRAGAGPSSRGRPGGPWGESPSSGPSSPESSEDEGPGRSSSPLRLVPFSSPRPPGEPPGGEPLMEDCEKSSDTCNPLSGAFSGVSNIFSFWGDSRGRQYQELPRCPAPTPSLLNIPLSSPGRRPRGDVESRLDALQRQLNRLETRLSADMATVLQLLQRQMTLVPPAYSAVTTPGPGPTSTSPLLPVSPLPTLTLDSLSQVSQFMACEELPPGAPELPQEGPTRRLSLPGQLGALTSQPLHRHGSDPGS
How it was run: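 Whole-cell patch clamp on an automated system using CHO cells stably expressing human hERG (IKr); 15 s pulse interval. Four increasing compound concentrations applied cumulatively; mean peak tail current from last 3 stimulations per concentration used. IC50 from inhibition versus pre-compound current, fitted by Hill equation.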

human 5-HT2A receptor [5] = target: T2, human 5-HT2A receptor (Homo sapiens (Human), UniProt P28223); assay: Test 1: binding activity for human 5-HT2A receptor ([3H]Ketanserin, CHO cell membrane fraction)
T2 sequence (P28223 whole entry): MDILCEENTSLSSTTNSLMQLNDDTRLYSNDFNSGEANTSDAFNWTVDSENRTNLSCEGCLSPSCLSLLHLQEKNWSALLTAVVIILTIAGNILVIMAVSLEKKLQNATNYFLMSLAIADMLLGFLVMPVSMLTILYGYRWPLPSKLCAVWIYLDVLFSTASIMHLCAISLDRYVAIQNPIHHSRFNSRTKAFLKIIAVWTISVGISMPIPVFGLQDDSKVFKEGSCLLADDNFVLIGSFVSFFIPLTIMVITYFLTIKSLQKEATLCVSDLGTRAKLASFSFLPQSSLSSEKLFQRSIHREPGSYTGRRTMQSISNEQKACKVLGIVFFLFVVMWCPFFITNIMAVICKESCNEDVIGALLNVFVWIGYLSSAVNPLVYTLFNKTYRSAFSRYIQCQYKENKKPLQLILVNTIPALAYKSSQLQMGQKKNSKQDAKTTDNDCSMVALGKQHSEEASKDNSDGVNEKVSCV
How it was run: as §1

human 5-HT2A receptor [6] = target: T2, human 5-HT2A receptor; assay: Test 3: antagonist activity for human 5-HT2A receptor (aequorin luminescence, CHO-K1 cells); type: cell-based; conditions: CHO-K1 cells, 1 nmol/L 5-HT
How it was run: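 CHO-K1 cells transiently co-expressing aequorin, Gα16 and receptor; compound in DMSO added and luminescence recorded on FDSS/μCELL.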

P-gp (MDR1) = P-gp (MDR1) (Homo sapiens (Human), UniProt P08183); assay: Test 9: P-gp substrate property (NFR, MDCKII and MDR1-MDCKII cells); type: in vitro ADME; conditions: Net Flux Ratio, MDR1-MDCKII vs MDCKII cells
Sequence of P-gp (MDR1) (P08183 whole entry, species assumed): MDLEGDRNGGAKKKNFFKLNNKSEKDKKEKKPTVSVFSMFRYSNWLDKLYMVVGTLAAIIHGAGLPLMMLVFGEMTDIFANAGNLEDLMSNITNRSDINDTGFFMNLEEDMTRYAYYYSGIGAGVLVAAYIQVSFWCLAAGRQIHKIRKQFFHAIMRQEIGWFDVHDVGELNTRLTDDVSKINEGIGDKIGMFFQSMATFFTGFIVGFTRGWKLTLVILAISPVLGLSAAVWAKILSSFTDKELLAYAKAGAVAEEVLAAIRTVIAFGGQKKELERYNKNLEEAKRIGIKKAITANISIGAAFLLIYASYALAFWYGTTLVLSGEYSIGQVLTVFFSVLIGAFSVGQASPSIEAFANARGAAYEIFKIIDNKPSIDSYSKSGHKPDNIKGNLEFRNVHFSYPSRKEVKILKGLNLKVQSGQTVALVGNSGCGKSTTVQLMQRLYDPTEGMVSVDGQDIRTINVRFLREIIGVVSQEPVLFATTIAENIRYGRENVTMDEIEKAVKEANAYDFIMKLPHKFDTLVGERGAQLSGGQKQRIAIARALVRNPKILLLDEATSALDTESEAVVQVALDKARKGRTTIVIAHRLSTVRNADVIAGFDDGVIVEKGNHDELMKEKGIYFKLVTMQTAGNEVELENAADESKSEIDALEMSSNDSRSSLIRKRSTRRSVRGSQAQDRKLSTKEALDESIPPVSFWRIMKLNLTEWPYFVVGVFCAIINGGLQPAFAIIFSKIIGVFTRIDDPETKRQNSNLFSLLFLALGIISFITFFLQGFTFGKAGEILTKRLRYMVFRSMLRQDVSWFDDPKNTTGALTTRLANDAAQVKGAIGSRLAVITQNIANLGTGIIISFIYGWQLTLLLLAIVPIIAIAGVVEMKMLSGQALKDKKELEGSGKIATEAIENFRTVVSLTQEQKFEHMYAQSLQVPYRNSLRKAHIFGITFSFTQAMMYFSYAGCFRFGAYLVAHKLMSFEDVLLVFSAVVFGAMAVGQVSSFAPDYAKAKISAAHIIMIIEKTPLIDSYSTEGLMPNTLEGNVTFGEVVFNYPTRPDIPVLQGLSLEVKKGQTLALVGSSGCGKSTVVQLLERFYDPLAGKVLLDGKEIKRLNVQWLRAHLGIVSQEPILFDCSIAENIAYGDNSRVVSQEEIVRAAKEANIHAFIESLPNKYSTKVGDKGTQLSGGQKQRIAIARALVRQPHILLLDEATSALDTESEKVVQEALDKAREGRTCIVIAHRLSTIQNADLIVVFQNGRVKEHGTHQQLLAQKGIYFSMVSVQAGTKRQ
Procedure: […]
NFR (Net Flux Ratio), which is an index of P-gp substrate property, can be calculated as follows. MDCKII (Madin-Darby canine kidney strain II) cells and MDR1-MDCKII cells in which MDR1 (multidrug resistance protein 1) was overexpressed were used to measure an apparent permeability coefficient (Papp A-B) from lumen (A) to basement membrane (B) and an apparent permeability coefficient (Papp B-A) from basement membrane (B) to lumen (A) of both MDCKII cells and MDR1-MDCKII cells. NFR (Net Flux Ratio) was calculated from the ratio between Ratio (Papp B-A/Papp A-B) of an apparent permeability coefficient of MDR1-MDCKII cells and Ratio of an apparent permeability coefficient of MDCKII cells.

T1 sequence (P08908 whole entry): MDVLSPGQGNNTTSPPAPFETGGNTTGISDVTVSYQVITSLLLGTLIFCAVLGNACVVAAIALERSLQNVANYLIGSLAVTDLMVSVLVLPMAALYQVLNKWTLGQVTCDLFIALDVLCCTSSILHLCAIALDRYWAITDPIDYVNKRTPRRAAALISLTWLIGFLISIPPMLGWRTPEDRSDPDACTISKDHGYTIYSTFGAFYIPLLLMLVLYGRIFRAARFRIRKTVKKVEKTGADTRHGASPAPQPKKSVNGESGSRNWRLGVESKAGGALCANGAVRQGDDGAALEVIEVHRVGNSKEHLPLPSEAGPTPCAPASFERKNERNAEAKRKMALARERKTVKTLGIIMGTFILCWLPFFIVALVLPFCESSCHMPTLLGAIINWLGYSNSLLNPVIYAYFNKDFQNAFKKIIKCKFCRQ

SMILES | Ki (human 5-HT1A receptor [1]) [nM] | Ki (human D2 receptor) [nM] | EC50 (human 5-HT1A receptor [2]) [nM] | Emax at 10 µM (human 5-HT1A receptor [2]) [%] | Metabolic stability in human hepatic microsome [3] [mL/min/mg protein] | half-life [4] [h] | IC50 (hERG channel) [nM] | Ki (human 5-HT2A receptor [5]) [nM] | D2 Ki/5-HT1A Ki (human D2 receptor) | D2 Ki/5-HT2A Ki (human D2 receptor) | IC50 (human 5-HT2A receptor [6]; aequorin luminescence) [nM] | hERG inhibition IC50 (nmol/L)/5-HT1A Ki (nmol/L) (hERG channel) | hERG inhibition IC50 (nmol/L)/5-HT2A Ki (nmol/L) (hERG channel) | NFR (P-gp (MDR1)) | IC50 (human 5-HT2A receptor [6]) [nM]
Cc1ncc2c(n1)CCN(CCN1CCC(c3noc4ccccc34)CC1)C2=O [Example 88, 6-{2-[4-(1,2-Benzoisoxazol-3-yl)piperidin-1-yl]ethyl}-2-methyl-7,8-dihydropyrido[4,3-d]pyrimidin-5(6H)-one] | 6.3 | 916 | 37 | 49 | <0.01 | > 23 | 5600 | – | – | – | – | – | – | – | –
CCc1ccc2c(n1)C(=O)N(CCN1CCC(c3noc4ccccc34)CC1)CC2 [Example 185] | 3.26 | 1170 | 95.3 | 52 | <0.05 | – | 700 | 28.3 | 358.6 | 41.4 | 68.7 | 214 | 25 | 2.4 | –
Cn1ncc2c1C(=O)N(CCN1CCN(c3nsc4ccccc34)CC1)CC2 [Example 59] | 1.99 | 125 | 8 | 61 | 0.173 | – | – | 0.45 | 63 | 278 | – | – | – | 1.1 | 9
Cn1ncc2c1CCCN(CCN1CCC(c3noc4ccccc34)CC1)C2=O [Example 43] | 1.3 | 222 | 8.5 | 73 | <0.01 | – | 2100 | 0.93 | 171 | 239 | – | 1630 | 2274 | 2.2 | 6.52
Cn1ccc2c1CCN(CCN1CCC(c3noc4ccccc34)CC1)C2=O [Example 60] | 13.7 | 260 | 43 | 54 | 0.018 | – | 700 | 1.1 | 19 | 236 | – | 51 | 640 | 1.5 | 3.91
Cn1cnc2c1CCN(CCN1CCN(c3nsc4ccccc34)CC1)C2=O [Example 54] | – | – | 38.4 | 55 | <0.01 | – | > 10000 | – | – | – | – | >3637 | >1538 | 6.6 | 13
Cc1cc2c(cn1)C(=O)N(CCN1CCN(c3noc4ccccc34)CC1)CC2 [Example 3, 2-{2-[4-(1,2-Benzoisoxazol-3-yl)piperazin-1-yl]ethyl}-6-methyl-3,4-dihydro-2,7-naphthyridin-1(2H)-one] | 2.7 | 1260 | 10.1 | 69 | <0.01 | > 30 | 7900 | – | – | – | – | – | – | – | –
Cn1cc2c(n1)CCN(CCN1CCN(c3nsc4ccccc34)CC1)C2=O [Example 36, 5-{2-[4-(1,2-Benzoisothiazol-3-yl)piperazin-1-yl]ethyl}-2-methyl-2,5,6,7-tetrahydro-4H-pyrazolo[4,3-c]pyridin-4-one] | 0.45 | 903 | 2.7 | 78 | 0.085 | – | 3200 | 0.62 | 2007 | 1456 | – | 7112 | 5162 | 1.8 | 6
Cn1ccc2c1CCCN(CCN1CCC(c3noc4ccccc34)CC1)C2=O [Example 103, 5-{2-[4-(1,2-Benzoisoxazol-3-yl)piperidin-1-yl]ethyl}-1-methyl-5,6,7,8-tetrahydropyrrolo[3,2-c]azepin-4(1H)-one] | 0.47 | 129 | 5.8 | 62 | <0.01 | > 45 | 1400 | – | – | – | – | – | – | – | –
Cc1c2c(nn1C)CCN(CCN1CCC(c3noc4ccccc34)CC1)C2=O [Example 37, 5-{2-[4-(1,2-Benzoisoxazol-3-yl)piperidin-1-yl]ethyl}-2,3-dimethyl-2,5,6,7-tetrahydro-4H-pyrazolo[4,3-c]pyridin-4-one] | 2.68 | 267 | 35 | 71 | 0.017 | 8 | 1000 | – | – | – | – | – | – | – | –
O=C1c2nc(Cl)ccc2CCN1CCN1CCC(c2noc3ccccc23)CC1 [Example 146] | 3.02 | 772 | 6.07 | 55 | <0.05 | – | 300 | 10.7 | 255.8 | 72.4 | 199 | 99 | 28 | 2.3 | –

— patent publication US10745401B2, “Condensed lactam derivative” (Sumitomo Dainippon Pharma Co., Ltd., priority 2018, dated 2020)
